Holding throughout (test): NCI-60 cell line screen, 48 h
The subject of assay [1] is 786-0.
Assay [2] has as its system ACHN.
Assay [3] relates to BT-549.
In assay [4] the test system is CAKI-1.
Assay [5] has as its system HCT-15.
The subject of assay [6] is HL-60.
For assay [7], the system named is KM12.
Assay [8] has as its system LOX IMVI.
Assay [9] relates to M14.
The test system of assay [10] is MOLT-4.
The test system of assay [11] is NCI-H226.
The subject of assay [12] is NCI-H522.
For assay [13], the system named is OVCAR-8.
In assay [14] the test system is PC-3.
The test system of assay [15] is RPMI-8226.
Assay [16] deals with RXF 393.
In assay [17] the test system is SF-295.
The test system of assay [18] is T47D.
Assay [19] concerns UACC-257.
The subject of assay [20] is UO-31.

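In this assay, cells in 96-well plates receive the compound at five concentrations for 48 hours. Endpoints are linearly interpolated between the surrounding concentrations. The concentration for 50% growth inhibition is given as GI50.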 The source made the active and inactive calls. No stated cut-off is given here; in the data, active = GI50 up to about 1.1 µM and inactive = higher. Bounds are passed on as bounds.

In the case of `c1ccc([P+](c2ccccc2)(c2ccccc2)c2ccc(-c3ccc([P+](c4ccccc4)(c4ccccc4)c4ccccc4)cc3)cc2)cc1`, the GI50 was 25.9 µM (inactive) in assay [1]; 23.1 µM (inactive) in assay [2]; 47.9 µM (inactive) in [3]; > 100 µM (inactive) in [4]; more than 100 µM in assay [5]; > 100 µM (inactive) in assay [6]. The GI50 in assay [7] was 75.5 µM (inactive); in assay [8] it was 23.3 µM (inactive); in [9] it was 44.9 µM (inactive); in assay [10] it was > 100 µM (inactive); in assay [11] it was 30.8 µM (inactive); in assay [12], 18.3 µM (inactive). The GI50 in [13] is 19.4 µM (inactive); in [14], 35.5 µM (inactive); in [15] it was > 100 µM (inactive); in assay [16] it was 48.1 µM (inactive); in assay [17] it was 30.2 µM (inactive); in [18] it was 41.4 µM (inactive). Also, in assay [19], the GI50 is 19.8 µM (inactive).
Take `CSCCC(NC(=O)OC(C)(C)C)C(=O)NCCNc1ccc(NCCNC(=O)C(CCSC)NC(=O)OC(C)(C)C)c2c1C(=O)c1ccccc1C2=O` (centres undefined): the GI50 was 5.82 µM (inactive) in assay [1]; 7.13 µM (inactive) in assay [2]; 4.43 µM (inactive) in [3]; 4.75 µM (inactive) in assay [4]; more than 67.6 µM in assay [5]; 3.01 µM (inactive) in [6]. In addition, the GI50 in assay [7] was 5.77 µM (inactive); in assay [8] it was 7.74 µM (inactive); in assay [9], 3.85 µM (inactive); in assay [10] it was 3.44 µM (inactive); in assay [11], 6.76 µM (inactive); in assay [12], 1.39 µM (inactive). Moreover, the GI50 is 1.96 µM (inactive) in assay [13]; 5.31 µM (inactive) in assay [14]; 3.01 µM (inactive) in [15]; 16.3 µM (inactive) in [16]; 7.57 µM (inactive) in assay [17]; 5.21 µM (inactive) in [18]. Moreover, the GI50 in [19] was 5.65 µM (inactive); in assay [20], > 100 µM (inactive).
For `COC(=O)NC(Nc1ccc(C)cc1)(C(F)(F)F)C(F)(F)F`, the GI50 in assay [1] was > 100 µM (inactive); in [2], > 100 µM (inactive); in [3], > 100 µM (inactive); in assay [4] it was > 100 µM (inactive); in assay [5] it was more than 100 µM; in assay [6], > 100 µM (inactive). Further, the GI50 in [7], in [8], in assay [9], in [10], in assay [11] and in [12] was > 100 µM (inactive) in each case. In addition, the GI50 in assay [13] is > 100 µM (inactive); in [14], > 100 µM (inactive); in assay [15], > 100 µM (inactive); in [16] it was 0.172 µM (active); in [17] it was > 100 µM (inactive); in [18], > 100 µM (inactive). In addition, the GI50 in [19] was > 100 µM (inactive); in assay [20] it was 18.3 µM (inactive).
With `CO[C@H]1C[C@H](O[C@H]2CC[C@]3(C=O)[C@H]4CC[C@]5(C)[C@@H](C6=CC(=O)OC6)CC[C@]5(O)[C@@H]4CC[C@]3(O)C2)O[C@H](C)[C@H]1O[C@@H]1O[C@H](CO)[C@@H](O)[C@H](O)[C@H]1O`, the GI50 in assay [1] was > 0.01 µM (active); in [2], 9.16e-06 µM (active); in [3], 1.22e-05 µM (active); in assay [4], 1.34e-05 µM (active); in assay [5], 3.94e-05 µM; in assay [6], > 0.01 µM (active). Moreover, the GI50 is 9.1e-05 µM (active) in assay [7]; 2.61e-05 µM (active) in assay [8]; 4.73e-05 µM (active) in assay [9]; 5.42e-06 µM (active) in assay [10]; 7.85e-05 µM (active) in [11]; 6.87e-06 µM (active) in assay [12]. For the same molecule, the GI50 in assay [13] is 3.34e-05 µM (active); in assay [14], 2.06e-05 µM (active); in assay [15] it was 3.7e-05 µM (active); in assay [16] it was 1.51e-05 µM (active); in assay [17] it was 2.04e-05 µM (active); in assay [18], 5.53e-05 µM (active). The GI50 in assay [19] was 8.22e-05 µM (active); in assay [20] it was 3.49e-05 µM (active).
In the case of `CCOC(=O)Cc1csc(N/N=C2\C(=O)Nc3ccccc32)n1`, the GI50 in [1] was 69.5 µM (inactive); in [2], 32.4 µM (inactive); in assay [3], 32.7 µM (inactive); in assay [4] it was 32.5 µM (inactive); in assay [5] it was 41 µM; in [6], 19.7 µM (inactive). For the same molecule, the GI50 in assay [7] was 31.2 µM (inactive); in assay [8] it was 48.8 µM (inactive); in assay [9], 41.7 µM (inactive); in assay [10] it was 29 µM (inactive); in assay [11], 30.2 µM (inactive); in assay [12] it was 19 µM (inactive). Also, the GI50 in assay [13] was 40.6 µM (inactive); in assay [14], 30.1 µM (inactive); in assay [15] it was 36.5 µM (inactive); in assay [16], 87.1 µM (inactive); in assay [17], 38.7 µM (inactive); in [18], 27.7 µM (inactive). For the same molecule, the GI50 in assay [19] is 74.5 µM (inactive); in assay [20] it was 27.3 µM (inactive).
In the case of `COc1ccc(/C=C/c2nccc3ccccc23)cc1OC`, the GI50 in assay [1] is > 10 µM (inactive); in assay [2], > 10 µM (inactive); in assay [3] it was > 10 µM (inactive); in assay [4] it was > 10 µM (inactive); in assay [5] it was more than 10 µM; in [6], > 10 µM (inactive). Also, the GI50 in [7] was 8.13 µM (inactive); in assay [8] it was 4.57 µM (inactive); in assay [9], > 10 µM (inactive); in assay [10], 4.52 µM (inactive); in [11], > 10 µM (inactive); in assay [12], > 10 µM (inactive). In addition, the GI50 in [13] is > 10 µM (inactive); in assay [14] it was > 10 µM (inactive); in assay [15], 5.98 µM (inactive); in assay [16], > 10 µM (inactive); in assay [17], > 10 µM (inactive); in assay [18], > 10 µM (inactive). Besides, the GI50 in [19] was > 10 µM (inactive).
In the case of `O=C(O)CNC(=O)c1ccc([As](=O)(O)O)cc1`, the GI50 in assay [1] is > 100 µM (inactive); in [2], > 100 µM (inactive); in assay [3], > 100 µM (inactive); in assay [4] it was > 100 µM (inactive); in [5], more than 100 µM; in assay [6], > 100 µM (inactive). Besides, the GI50 in assay [7], in assay [8], in assay [9], in assay [10], in assay [11] and in assay [12] was > 100 µM (inactive) throughout. Further, the GI50 in assay [13], in assay [14], in [15], in assay [16], in assay [17] and in assay [18] was > 100 µM (inactive) in each case. The GI50 in assay [20] is > 100 µM (inactive).
As for `COC(=O)/C(C#N)=C(\Nc1ccccc1)N1CCCC1`, the GI50 in assay [1] is > 100 µM (inactive); in [2] it was > 100 µM (inactive); in assay [3] it was > 100 µM (inactive); in [4], > 100 µM (inactive); in assay [5], more than 100 µM; in assay [6], > 100 µM (inactive). The GI50 in assay [8], in [9], in assay [10], in [11], in [12] and in [13] was > 100 µM (inactive) each time. In addition, the GI50 in assay [14], in assay [15], in assay [16], in assay [17], in assay [18] and in assay [19] was > 100 µM (inactive) throughout. Also, in assay [20], the GI50 is > 100 µM (inactive).
With `O=C1CC2(c3ccccc3)ON=C(c3ccccc3)N2c2ccccc2N1` (centres undefined), the GI50 in assay [1] is 88.7 µM (inactive); in assay [2], 61.8 µM (inactive); in assay [3] it was 37.2 µM (inactive); in assay [5], 53.8 µM; in assay [6], 26.7 µM (inactive); in [7] it was 74 µM (inactive). Also, the GI50 in assay [8] was 66.4 µM (inactive); in [9], 60.4 µM (inactive); in [10] it was 29.7 µM (inactive); in assay [11], > 100 µM (inactive); in [12] it was 41.6 µM (inactive); in assay [13] it was 77.1 µM (inactive). Besides, the GI50 in assay [14] is 30.5 µM (inactive); in assay [15], 63.4 µM (inactive); in assay [16], 87.1 µM (inactive); in [17], > 100 µM (inactive); in assay [18], 24.6 µM (inactive); in [19], 71.8 µM (inactive). Also, the GI50 in [20] was 32.4 µM (inactive).
Turning to `O=C(O)c1cc(O)c2c(c1)C([C@@H]1c3cccc(O)c3C(=O)c3c(O)cc(C(=O)O)cc31)c1cccc(O)c1C2=O` (some centres undefined), the GI50 is 51.5 µM (inactive) in [1]; 81.5 µM (inactive) in assay [2]; 51.1 µM (inactive) in assay [3]; > 100 µM (inactive) in assay [4]; 29.9 µM (inactive) in [6]; 20.5 µM (inactive) in assay [7]. Also, the GI50 in assay [8] was 15.8 µM (inactive); in assay [9], > 10 µM (inactive); in [10], 20.7 µM (inactive); in assay [11], 33.7 µM (inactive); in assay [12] it was 19.7 µM (inactive); in assay [13], 33.4 µM (inactive). Also, the GI50 was 36.1 µM (inactive) in [14]; 32.9 µM (inactive) in assay [15]; 28.2 µM (inactive) in [16]; 34.7 µM (inactive) in assay [17]; 59.6 µM (inactive) in [18]; 35.5 µM (inactive) in assay [19]. In addition, the GI50 in assay [20] is > 100 µM (inactive).

The values are drawn from ChEMBL document CHEMBL1201862, “PubChem BioAssay data set” (2004).
